From ChEMBL document CHEMBL5223100, “Homobivalent, Trivalent, and Covalent PROTACs: Emerging Strategies for Protein Degradation” (J Med Chem, 2022)

Key:
[1] = target: T1, Tyrosine-protein kinase BTK (Homo sapiens, UniProt Q06187); assay: Induction of BTK degradation in human MINO cells assessed as maximum degradation relative to control; format: cell-based
[2] = target: T1, Tyrosine-protein kinase BTK; assay: Induction of BTK degradation in human MINO cells; format: cell-based
Protein cereblon = Protein cereblon (Homo sapiens, UniProt Q96SW2); assay: Induction of CRBN degradation in human MM1.S cells assessed as maximum degradation at 100 nM incubated for 24 hrs relative to control; format: cell-based
Chain of Protein cereblon (Q96SW2 whole entry): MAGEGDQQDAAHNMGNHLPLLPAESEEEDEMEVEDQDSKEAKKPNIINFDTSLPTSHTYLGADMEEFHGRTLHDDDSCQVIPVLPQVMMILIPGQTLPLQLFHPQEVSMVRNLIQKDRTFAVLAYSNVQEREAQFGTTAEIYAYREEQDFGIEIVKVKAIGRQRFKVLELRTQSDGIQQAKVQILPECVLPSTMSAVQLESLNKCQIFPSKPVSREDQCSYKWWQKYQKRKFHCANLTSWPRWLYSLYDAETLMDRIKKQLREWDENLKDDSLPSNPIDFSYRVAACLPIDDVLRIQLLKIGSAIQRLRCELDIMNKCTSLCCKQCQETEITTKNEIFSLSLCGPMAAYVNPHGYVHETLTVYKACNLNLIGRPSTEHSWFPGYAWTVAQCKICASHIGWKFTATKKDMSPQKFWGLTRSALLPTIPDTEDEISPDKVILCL

MV4-11 = assay: Antiproliferative activity against human MV4-11 cells
SU-DHL-1 = assay: Antiproliferative activity against human SU-DHL-1 cells; format: functional, cell-based
[3] = target: ALK tyrosine kinase receptor (Homo sapiens) (UniProt Q9UM73); assay: Induction of ALK degradation in human SU-DHL-1 cells assessed as maximum degradation at 3 uM after 12 hrs relative to control; format: cell-based
Chain of ALK tyrosine kinase receptor (Homo sapiens) (Q9UM73 19-1620 limits assumed): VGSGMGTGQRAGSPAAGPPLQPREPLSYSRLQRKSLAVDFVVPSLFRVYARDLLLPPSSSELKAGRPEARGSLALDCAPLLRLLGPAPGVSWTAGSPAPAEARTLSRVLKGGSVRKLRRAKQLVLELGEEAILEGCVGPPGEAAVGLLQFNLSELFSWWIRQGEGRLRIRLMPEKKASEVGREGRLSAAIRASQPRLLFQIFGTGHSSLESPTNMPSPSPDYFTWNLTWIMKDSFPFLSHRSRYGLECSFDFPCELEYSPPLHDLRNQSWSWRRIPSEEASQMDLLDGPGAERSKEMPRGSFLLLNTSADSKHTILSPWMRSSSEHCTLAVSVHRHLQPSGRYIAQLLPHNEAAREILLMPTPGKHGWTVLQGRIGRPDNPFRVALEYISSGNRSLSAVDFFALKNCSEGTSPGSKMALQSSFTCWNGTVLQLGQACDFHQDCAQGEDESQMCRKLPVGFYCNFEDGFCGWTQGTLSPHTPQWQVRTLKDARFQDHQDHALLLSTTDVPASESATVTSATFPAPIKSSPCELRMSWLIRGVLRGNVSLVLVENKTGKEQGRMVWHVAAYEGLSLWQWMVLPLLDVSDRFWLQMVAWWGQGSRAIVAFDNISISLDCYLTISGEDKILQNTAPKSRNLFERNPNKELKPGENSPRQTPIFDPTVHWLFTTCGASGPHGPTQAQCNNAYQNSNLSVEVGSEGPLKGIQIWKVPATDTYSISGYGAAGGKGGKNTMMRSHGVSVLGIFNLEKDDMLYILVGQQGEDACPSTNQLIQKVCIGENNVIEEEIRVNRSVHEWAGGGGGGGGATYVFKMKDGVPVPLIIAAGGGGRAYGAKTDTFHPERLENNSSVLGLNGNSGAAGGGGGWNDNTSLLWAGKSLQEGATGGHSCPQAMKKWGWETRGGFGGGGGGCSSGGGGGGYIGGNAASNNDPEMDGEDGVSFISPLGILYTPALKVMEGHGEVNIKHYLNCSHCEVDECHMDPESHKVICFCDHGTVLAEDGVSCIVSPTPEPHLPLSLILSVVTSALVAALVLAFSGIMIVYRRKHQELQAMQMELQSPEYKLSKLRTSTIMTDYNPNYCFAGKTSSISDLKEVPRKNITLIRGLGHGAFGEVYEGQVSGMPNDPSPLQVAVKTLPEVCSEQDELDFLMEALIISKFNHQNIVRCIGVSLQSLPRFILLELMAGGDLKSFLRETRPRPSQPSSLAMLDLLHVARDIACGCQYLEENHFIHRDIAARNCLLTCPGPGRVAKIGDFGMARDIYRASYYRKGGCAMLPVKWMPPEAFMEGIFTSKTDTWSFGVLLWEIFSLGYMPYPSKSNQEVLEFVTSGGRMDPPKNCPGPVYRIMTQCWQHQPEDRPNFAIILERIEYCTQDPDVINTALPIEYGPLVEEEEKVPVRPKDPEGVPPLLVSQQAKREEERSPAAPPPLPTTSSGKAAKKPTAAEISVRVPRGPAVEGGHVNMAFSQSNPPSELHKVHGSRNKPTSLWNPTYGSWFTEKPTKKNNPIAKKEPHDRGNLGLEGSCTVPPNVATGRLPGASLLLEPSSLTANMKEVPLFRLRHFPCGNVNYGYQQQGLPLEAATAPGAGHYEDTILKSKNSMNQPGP

[4] = target: ALK tyrosine kinase receptor (Homo sapiens) (UniProt Q9UM73); assay: Induction of ALK degradation in human SU-DHL-1 cells assessed as maximum degradation at 100 nM pretreated with S-Ac-GSH followed by compound addition and measured after 12 hrs relative to control; format: cell-based
[5] = system: von Hippel-Lindau disease tumor suppressor/Epidermal growth factor receptor (Homo sapiens), P00533+P40337 [UNDEFINED MUTATION]; assay: Protac activity at VHL/EGFR Del19 mutant in human HCC827 cells assessed as maximum degradation relative to control; format: cell-based
Chain of von Hippel-Lindau disease tumor suppressor/Epidermal growth factor receptor (Homo sapiens), P00533+P40337 [UNDEFINED MUTATION] (P00533 whole entry, looked up, stated change not applied): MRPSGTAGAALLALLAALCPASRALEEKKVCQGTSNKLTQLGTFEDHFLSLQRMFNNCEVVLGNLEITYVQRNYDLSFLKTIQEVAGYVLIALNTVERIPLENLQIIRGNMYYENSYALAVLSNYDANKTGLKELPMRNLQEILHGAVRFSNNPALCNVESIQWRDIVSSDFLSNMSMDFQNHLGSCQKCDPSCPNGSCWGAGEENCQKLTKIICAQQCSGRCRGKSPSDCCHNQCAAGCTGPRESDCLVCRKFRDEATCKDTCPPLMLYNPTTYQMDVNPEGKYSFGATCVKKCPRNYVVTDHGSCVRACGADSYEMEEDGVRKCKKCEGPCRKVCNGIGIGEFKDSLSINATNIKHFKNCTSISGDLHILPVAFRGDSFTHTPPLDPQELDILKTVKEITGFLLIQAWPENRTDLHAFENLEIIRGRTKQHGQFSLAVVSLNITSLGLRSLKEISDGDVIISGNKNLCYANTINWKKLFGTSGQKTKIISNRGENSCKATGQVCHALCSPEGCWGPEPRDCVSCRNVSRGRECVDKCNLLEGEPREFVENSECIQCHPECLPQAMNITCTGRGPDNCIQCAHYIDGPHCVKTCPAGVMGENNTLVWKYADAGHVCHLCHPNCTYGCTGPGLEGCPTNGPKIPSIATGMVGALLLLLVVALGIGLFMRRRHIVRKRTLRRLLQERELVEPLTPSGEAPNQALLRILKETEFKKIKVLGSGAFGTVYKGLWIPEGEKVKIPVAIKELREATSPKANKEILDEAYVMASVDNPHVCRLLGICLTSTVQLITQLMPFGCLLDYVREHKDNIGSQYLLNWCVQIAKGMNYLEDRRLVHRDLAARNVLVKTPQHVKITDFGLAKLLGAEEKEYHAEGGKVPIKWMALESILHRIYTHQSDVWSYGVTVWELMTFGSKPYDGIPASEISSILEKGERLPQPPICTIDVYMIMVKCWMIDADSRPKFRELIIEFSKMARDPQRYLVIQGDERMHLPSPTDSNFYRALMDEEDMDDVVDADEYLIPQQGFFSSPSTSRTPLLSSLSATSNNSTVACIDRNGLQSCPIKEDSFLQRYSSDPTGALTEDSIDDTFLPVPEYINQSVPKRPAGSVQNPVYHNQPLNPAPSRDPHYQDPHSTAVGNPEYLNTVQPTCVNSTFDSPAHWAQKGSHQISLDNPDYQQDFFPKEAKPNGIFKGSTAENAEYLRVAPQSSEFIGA
Chain of von Hippel-Lindau disease tumor suppressor/Epidermal growth factor receptor (Homo sapiens), P00533+P40337 [UNDEFINED MUTATION] (P40337 whole entry, looked up, stated change not applied): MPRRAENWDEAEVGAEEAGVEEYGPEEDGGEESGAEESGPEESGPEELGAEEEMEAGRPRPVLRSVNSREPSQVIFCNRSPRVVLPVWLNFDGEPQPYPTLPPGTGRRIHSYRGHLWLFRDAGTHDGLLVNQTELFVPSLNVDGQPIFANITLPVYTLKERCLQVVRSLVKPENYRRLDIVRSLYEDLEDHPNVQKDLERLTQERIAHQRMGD

NCI-H1975 = assay: Antiproliferative activity against human NCI-H1975 cells harboring EGFR L858R/T790M double mutant; format: functional, cell-based
HCC827 [6] = assay: Antiproliferative activity against human HCC827 cells harboring EGFRDel19 mutant; format: functional, cell-based
HCC827 [7] = assay: Antitumor activity against human HCC827 cells xenografted in mouse assessed as tumor growth inhibition at 30 mg/kg; format: functional; settings: read-out: TGI
[8] = target: von Hippel-Lindau disease tumor suppressor/Epidermal growth factor receptor (Homo sapiens, UniProt P00533+P40337); assay: Protac activity at VHL/EGFR Del19 mutant in human HCC827 cells; format: cell-based
MCF7 = assay: Antitumor activity against human MCF7 cells xenografted in mouse assessed as tumor growth inhibition; format: functional
[9] = target: Androgen receptor (Homo sapiens) (UniProt P10275); assay: Induction of AR degradation in human 22Rv1 cells assessed as maximum degradation at 10 uM after 8 hrs relative to control; format: cell-based
HCT-116 = assay: Antiproliferative activity against human HCT-116 cells; format: functional, cell-based
A549 = assay: Antiproliferative activity against human A549 cells; format: functional, cell-based
[10] = target: Bromodomain-containing protein 4 (Homo sapiens, UniProt O60885); assay: Induction of BRD4 degradation in human HeLa cells assessed as maximum degradation at 10 nM after 12 hrs relative to control; format: cell-based
HeLa = assay: Antiproliferative activity against human HeLa cells; format: functional, cell-based
[11] = target: T1, Tyrosine-protein kinase BTK; assay: Induction of BTK degradation in human Ramos cells assessed as maximum degradation at 300 nM relative to control; format: cell-based
[12] = target: T2, von Hippel-Lindau disease tumor suppressor (Homo sapiens, UniProt P40337); assay: Induction of pVHL30 degradation in human HeLa cells incubated for 4 hrs; format: cell-based
[13] = target: T2, von Hippel-Lindau disease tumor suppressor; assay: Binding affinity to human VHL by isothermal calorimetric assay
Target sequence in this assay (P40337 whole entry): as the sequence (P40337 whole entry, looked up, stated change not applied) above

HT-29 = assay: Antiproliferative activity against human HT-29 cells; format: functional, cell-based
[14] = target: Dual specificity mitogen-activated protein kinase kinase; MEK1/2 (Homo sapiens) (UniProt P36507+Q02750); assay: Induction of MEK degradation in human HT-29 cells assessed as maximum degradation at 100 nM after 12 hrs relative to control; format: cell-based
Chain of Dual specificity mitogen-activated protein kinase kinase; MEK1/2 (Homo sapiens) (P36507 whole entry, looked up): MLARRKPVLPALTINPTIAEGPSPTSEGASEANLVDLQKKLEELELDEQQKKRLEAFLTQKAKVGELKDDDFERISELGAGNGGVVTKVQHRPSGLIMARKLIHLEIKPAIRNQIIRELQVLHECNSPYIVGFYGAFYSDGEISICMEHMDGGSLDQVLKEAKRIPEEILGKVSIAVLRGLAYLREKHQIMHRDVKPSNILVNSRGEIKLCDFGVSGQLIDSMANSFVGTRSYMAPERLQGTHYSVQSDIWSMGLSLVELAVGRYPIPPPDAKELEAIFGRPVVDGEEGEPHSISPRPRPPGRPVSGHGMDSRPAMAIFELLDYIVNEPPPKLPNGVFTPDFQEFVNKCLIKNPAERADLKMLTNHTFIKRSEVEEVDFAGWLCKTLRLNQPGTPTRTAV
Chain of Dual specificity mitogen-activated protein kinase kinase; MEK1/2 (Homo sapiens) (Q02750 whole entry, looked up): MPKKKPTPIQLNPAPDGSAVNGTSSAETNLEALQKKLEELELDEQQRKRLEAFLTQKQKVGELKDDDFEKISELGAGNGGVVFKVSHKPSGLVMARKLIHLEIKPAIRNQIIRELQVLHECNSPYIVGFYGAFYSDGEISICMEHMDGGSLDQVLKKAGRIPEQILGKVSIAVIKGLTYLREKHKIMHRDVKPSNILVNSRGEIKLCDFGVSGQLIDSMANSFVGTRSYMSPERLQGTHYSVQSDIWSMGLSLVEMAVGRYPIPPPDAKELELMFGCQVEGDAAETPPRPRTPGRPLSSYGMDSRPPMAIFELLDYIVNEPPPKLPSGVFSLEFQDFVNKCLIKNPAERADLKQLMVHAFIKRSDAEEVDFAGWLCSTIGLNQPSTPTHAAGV

T1 sequence (Q06187 whole entry): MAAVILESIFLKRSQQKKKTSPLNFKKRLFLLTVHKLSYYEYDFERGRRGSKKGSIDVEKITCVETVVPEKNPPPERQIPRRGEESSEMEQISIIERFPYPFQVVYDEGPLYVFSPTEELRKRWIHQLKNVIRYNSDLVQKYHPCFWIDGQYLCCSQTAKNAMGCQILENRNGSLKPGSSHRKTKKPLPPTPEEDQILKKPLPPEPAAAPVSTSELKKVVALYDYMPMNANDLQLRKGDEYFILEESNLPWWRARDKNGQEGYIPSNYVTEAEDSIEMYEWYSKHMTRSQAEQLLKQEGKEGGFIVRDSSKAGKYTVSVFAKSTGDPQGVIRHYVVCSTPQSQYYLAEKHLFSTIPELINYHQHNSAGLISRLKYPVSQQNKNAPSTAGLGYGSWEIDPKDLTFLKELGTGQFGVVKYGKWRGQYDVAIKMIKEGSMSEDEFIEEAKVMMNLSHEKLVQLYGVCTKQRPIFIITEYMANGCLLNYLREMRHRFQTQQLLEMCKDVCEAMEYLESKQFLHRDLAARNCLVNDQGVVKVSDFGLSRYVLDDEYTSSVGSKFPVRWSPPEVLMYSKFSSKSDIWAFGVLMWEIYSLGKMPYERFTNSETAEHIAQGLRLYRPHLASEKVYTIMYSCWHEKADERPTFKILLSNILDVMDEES

With `Nc1ncnc2c1c(-c1ccc(Oc3ccccc3)cc1)nn2[C@@H]1CCCN(C(=O)/C=C/CCCCOCCOCCOCCOCCOc2cccc3c2C(=O)N(C2CCC(=O)NC2=O)C3=O)C1` (some centres undefined) the Emax [1] was 88% and the DC50 [2] was 1.9 nM.

With `Cc1ncsc1-c1ccc(CNC(=O)[C@@H]2C[C@@H](O)CN2C(=O)[C@@H](NC(=O)CCCCOCCCCCOCCCCCCNc2cccc3c2C(=O)N(C2CCC(=O)NC2=O)C3=O)C(C)(C)C)cc1` (some centres undefined) the Emax (Protein cereblon) was > 90%.

`Cc1sc2c(c1C)C(c1ccc(Cl)cc1)=N[C@@H](CC(=O)NCCOCCOCCOCC(C)(COCCOCCOCCNC(=O)C[C@@H]1N=C(c3ccc(Cl)cc3)c3c(sc(C)c3C)-n3c(C)nnc31)COC(=O)NCCNc1cccc3c1C(=O)N(C1CCC(=O)NC1=O)C3=O)c1nnc(C)n1-2` (some centres undefined) gave an IC50 (MV4-11) of 94.6 nM.

`Cc1cc(Nc2ncc(Cl)c(Nc3ccccc3S(=O)(=O)C(C)C)n2)c(OC(C)C)cc1C1CCN(CC(=O)NCCNc2cccc3c2C(=O)N(C2CCC(=O)N(C(=O)OCCSSCCn4cc(CNC(=O)CC[C@H](NC(=O)c5ccc(NCc6cnc7nc(N)[nH]c(=O)c7n6)cc5)C(=O)O)nn4)C2=O)C3=O)CC1` (some centres undefined) was tested, and the IC50 (SU-DHL-1) was 465 nM, the Emax [3] was 100% and the Emax [4] was 100%.

With `Cc1ncsc1-c1ccc(CNC(=O)[C@H]2C[C@H](O)CN2C(=O)[C@H](NC(=O)CCCCCCCCCCn2cc(COc3cc4ncnc(Nc5ccc(F)c(Cl)c5)c4cc3NC(=O)/C=C/N3CCCCC3)nn2)C(C)(C)C)cc1` the Emax [5] was 91%, the IC50 (NCI-H1975) was > 20 nM and the IC50 (HCC827 [6]) was 6 nM. The inhibition in vivo at 30 mg/kg (HCC827 [7]) was 90% and the DC50 [8] was 3.57 nM.

In the case of `Cc1ncsc1-c1ccc(CNC(=O)[C@@H]2C[C@@H](O)CN2C(=O)[C@@H](NC(=O)COCCOCCOCCNC(=O)C[C@@H]2N=C(c3ccc(Cl)cc3)c3c(sc(C)c3C)-n3c(C)nnc32)C(C)(C)C)cc1`, the TGI (MCF7) is reported as 59.8%.

Compound `CC1(C)[C@H](NC(=O)c2ccc(OCC(=O)NCCCOCCOCCOCCCN(C(=O)CCl)C(C(=O)NCc3ccccc3)c3ccc(Cl)c(Cl)c3)cc2)C(C)(C)[C@H]1Oc1ccc(C#N)c(Cl)c1` (some centres undefined) has an Emax [9] of 90%.

With `COc1ccc(C2=N[C@@H](c3ccc(Cl)cc3)[C@@H](c3ccc(Cl)cc3)N2C(=O)N2CCNC(=O)C2)c(OC(C)C)c1` [NUTLIN-3] the IC50 (HCT-116) was 5000 nM and the IC50 (A549) was 7900 nM.

With `Cc1ncsc1-c1ccc([C@H](C)NC(=O)[C@@H]2C[C@@H](O)CN2C(=O)[C@@H](NC(=O)COCCCOCCNC(=O)C[C@@H]2N=C(c3ccc(Cl)cc3)c3c(sc(C)c3C)-n3c(C)nnc32)C(C)(C)C)cc1` the Emax [10] was 100% and the IC50 (HeLa) was 183 nM.

`CN[C@@H](C)C(=O)N[C@H](C(=O)N1C[C@@H](NC(=O)COCCOCCOCCOCCN2CCN(C/C=C/C(=O)N3CCC[C@@H](n4nc(-c5ccc(Oc6ccccc6)cc5)c5c(N)ncnc54)C3)CC2)C[C@H]1C(=O)N[C@H]1CCCc2ccccc21)C1CCCCC1` showed an Emax [11] of 100%.

`Cc1ncsc1-c1ccc(CNC(=O)[C@@H]2C[C@@H](O)CN2C(=O)[C@@H](NC(=O)COCCOCCOCCOCCOCCOC(=O)N[C@H](C(=O)N2C[C@H](O)C[C@H]2C(=O)NCc2ccc(-c3scnc3C)cc2)C(C)(C)C)C(C)(C)C)cc1` was tested, and the DC50 [12] was < 100 nM, the EC99 [12] was 10 nM and the Kd [13] was 11 nM.

`Cc1ncsc1-c1ccc([C@H](C)NC(=O)[C@@H]2C[C@@H](OC(=O)CCCCn3cc(CNC(=O)CC[C@H](NC(=O)c4ccc(NCc5cnc6nc(N)[nH]c(=O)c6n5)cc4)C(=O)O)nn3)CN2C(=O)[C@@H](NC(=O)CCCCCCCCCCNCCCONC(=O)c2ccc(F)c(F)c2Nc2ccc(I)cc2F)C(C)(C)C)cc1` gave an IC50 (HT-29) of 246 nM and an Emax [14] of 90%.
